The values that follow come from patent US5519034A, “Tetraisoquinoline compounds which have useful pharmaceutical utility” (The Boots Company PLC, priority 1991, dated 1996).

Read-outs that look alike come from different tables or passages of the source. Bounds are passed on as bounds.

The target of assay [1] is T1, D2 dopamine receptors (Rattus norvegicus, UniProt P61169).
T1 construct: Striatal samples from the brains of male Charles River CD rats; from tissue; host or cells: striatum of male Charles River CD rats (washed membrane pellet)
T1 sequence (P61169 whole entry): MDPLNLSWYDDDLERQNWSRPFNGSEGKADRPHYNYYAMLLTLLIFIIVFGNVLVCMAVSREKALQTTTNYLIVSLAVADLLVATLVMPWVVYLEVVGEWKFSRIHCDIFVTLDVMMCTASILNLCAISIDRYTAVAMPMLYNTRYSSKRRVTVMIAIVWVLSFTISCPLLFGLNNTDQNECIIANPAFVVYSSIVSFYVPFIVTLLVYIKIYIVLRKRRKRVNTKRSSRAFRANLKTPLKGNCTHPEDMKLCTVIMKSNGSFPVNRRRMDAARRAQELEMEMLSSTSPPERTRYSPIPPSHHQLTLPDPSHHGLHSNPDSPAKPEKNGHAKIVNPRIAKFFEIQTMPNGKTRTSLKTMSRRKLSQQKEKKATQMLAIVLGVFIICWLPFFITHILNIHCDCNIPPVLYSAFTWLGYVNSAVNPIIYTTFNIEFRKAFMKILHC
Kind of assay: D2 dopamine receptor binding: inhibition of tritiated (S)-sulpiride binding, rat striatal samples. As to conditions: for Ki: rat striatum, tritiated (S)-sulpiride; for Ki for D2 / Ki for D1: ratio to two significant figures. Further details: species or system rat (male Charles River CD rats). As for the experimental part: (§1) Striatal samples from the brains of male Charles River CD rats weighing between 140-250 g were homogenised in ice-cold 50 mM Tris-HCl buffer (pH 7.4 when measured at 25° C. for D1 binding assays and pH 7.7 when measured at 25° C. for D2 binding assays) and centrifuged for 10 minutes (at 21,000 g when used for D1binding assay and 40,000 g when used for D2binding assays). The pellet was resuspended in the same buffer, again centrifuged and the final pellet stored at -80° C. Before each test the pellet was resuspended in 50 mM Tris-HCl buffer containing 120 mM NaCl, 5 mM KCl, 2 mM CaCl2 and 1 mM MgCl2 at pH 7.4 for the D1 binding assays and at pH 7.7 with the addition of 6 mM ascorbic acid for the D2 binding assays. Aliquots of this suspension were then added to tubes containing the ligand and either the compound under test or buffer. For the D1 binding assays the ligand was tritiated SCH 23390 and the mixture was incubated at 37° C. for 30 minutes before the incubation was terminated by rapid filtration. For the D2 binding assays the ligand was tritiated (S)-sulpiride and the mixture was incubated at 4° C. for 40 minutes before the incubation was terminated by rapid filtration. Non-specific binding was determined experimentally by the addition of saturating concentrations of chloropromazine or spiroperidol for D1 and D2 receptors respectively.
(§2) The filters were washed with ice-cold Tris-HCl buffer and dried. The filters were punched out on to vials containing scintillation fluid and were left for about 20 hours before being counted by scintillation spectrophotometry. Displacement curves were produced over a range of concentrations of the compound under test and the concentration which gave a 50% inhibition of specific binding (IC50) obtained from the curve. The inhibition coefficient Ki was then calculated using the formula [formula] in which [ligand] is the concentration of the tritiated ligand used and KD is the equilibrium dissociation constant for the ligand.
(§3) In some cases Ki values for D2 binding were estimated from single concentration data by the application of the Langmuir adsorption isotherm equation. These cases are indicated by an "E" in the last two columns of Table I. In other cases it was not possible to determine or estimate the Ki and the Ki value is given as greater than (>) that which would result from the application of the above formula to the highest concentration which displaced ≤50% of the ligand.

Assay [2] has as its target T2, D1 dopamine receptors (Rattus norvegicus, UniProt P18901).
T2 construct: Striatal samples from the brains of male Charles River CD rats; from tissue; host or cells: striatum of male Charles River CD rats (washed membrane pellet)
Kind of assay: D1 dopamine receptor binding: inhibition of tritiated SCH 23390 binding, rat striatal samples. Further details: species or system rat (male Charles River CD rats). The conditions noted are these: rat striatum, tritiated SCH 23390, pH 7.4, 37° C., 30 minutes. As for the experimental part:
as §1, §2, §3

Setting [3] is: pH 7.7, 4° C., 40 minutes, > = from highest concentration which displaced ≤50% of the ligand, read-out: Ki for D2 binding.

T2 sequence (P18901 whole entry): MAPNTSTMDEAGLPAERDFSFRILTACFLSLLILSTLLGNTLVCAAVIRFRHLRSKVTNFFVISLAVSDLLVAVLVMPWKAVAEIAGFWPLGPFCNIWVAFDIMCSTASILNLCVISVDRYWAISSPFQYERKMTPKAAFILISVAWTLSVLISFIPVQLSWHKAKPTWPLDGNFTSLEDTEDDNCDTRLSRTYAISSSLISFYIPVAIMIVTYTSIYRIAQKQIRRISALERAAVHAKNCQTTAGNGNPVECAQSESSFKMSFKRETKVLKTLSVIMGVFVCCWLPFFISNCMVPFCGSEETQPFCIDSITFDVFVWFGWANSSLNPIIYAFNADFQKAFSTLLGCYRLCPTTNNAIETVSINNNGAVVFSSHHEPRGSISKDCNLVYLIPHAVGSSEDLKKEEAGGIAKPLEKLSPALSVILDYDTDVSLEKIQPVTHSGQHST

`COc1cc2c(cc1O)C(C1(c3ccccc3)CCC1)N(C)CC2` (centres unmarked) [Example 55, 7-hydroxy-6-methoxy-2-methyl-1-(1-phenylcyclobutyl)-1,2,3,4-tetrahydroisoquinoline]: the values for the Ki in assay [1] (setting [3]) and in assay [2] were more than 500 nM and 41 nM, respectively. Moreover, in assay [1], the “Ki for D2 / Ki for D1” value is listed as more than 12.
For the compound `CN1CCc2cc(O)c(O)cc2C1C1(c2ccc3ccccc3c2)CCC1` (centres unmarked) [Example 42, 6,7-dihydroxy-2-methyl-1-[1-(2-naphthyl)cyclobutyl]-1,2,3,4-tetrahydroisoquinoline], the Ki in assay [1] (setting [3]) was 2500 nM; in assay [2], 170 nM. Moreover, the “Ki for D2 / Ki for D1” value in assay [1] stood at 15.
On the same counts, the results for `CN1CCc2cc(O)c(O)cc2C1C1(c2ccccc2Cl)CCC1` (centres unmarked) [Example 2, 1-[1-(2-chlorophenyl)cyclobutyl]-6,7-dihydroxy-2-methyl-1,2,3,4-tetrahydroisoquinoline] are 12000 nM, 7.2 nM and 1700.
For `COc1cc2c(cc1O)C(C1(c3cc(OC)c(OC)cc3Br)CCC1)N(C)CC2` (centres unmarked) [Example 56, 1-[1-(2-bromo-4,5-dimethoxyphenyl)cyclobutyl]-7-hydroxy-6-methoxy-2-methyl-1,2,3,4-tetrahydroisoquinoline], in that order: 52000 nM, 2.3 nM and 23000.
On the same counts, the results for `CN1CCc2c(cc(O)c(O)c2Cl)C1C1(c2ccccc2)CCC1` (centres unmarked) [Example 32, 5-chloro-6,7-dihydroxy-2-methyl-1-(1-phenylcyclobutyl)-1,2,3,4-tetrahydroisoquinoline] are more than 5000 nM, 140 nM and more than 36.
As for `Cc1ccccc1C1(C2c3cc(O)c(O)cc3CCN2C)CCC1` (centres unmarked) [Example 4, 6,7-dihydroxy-2-methyl-1-[1-(o-tolyl)cyclobutyl]-1,2,3,4-tetrahydroisoquinoline], the Ki came out at 260000 nM in assay [1] (setting [3]) and 29 nM in assay [2]. For the same compound, in assay [1], the “Ki for D2 / Ki for D1” value is reported as 9000.
On to `CN1CCc2ccc(O)cc2C1C1(c2ccccc2Cl)CC1` (centres unmarked) [Example 12, 1-(1-(2-chlorophenyl)cyclopropyl)-7-hydroxy-2-methyl-1,2,3,4-tetrahydroisoquinoline], for which the figures for the Ki in assay [1] (setting [3]) and in assay [2] were 710 nM and 1.4 nM, respectively. For the same compound, in assay [1], the “Ki for D2 / Ki for D1” value worked out at 510.
For `CN1CCc2ccc(O)cc2C1C1(c2ccccc2Cl)CCC1` (centres unmarked) [Example 47, 1-[1-(2-chlorophenyl)cyclobutyl]-7-hydroxy-2-methyl-1,2,3,4-tetrahydroisoquinoline], in that order: 19000 nM, 9.1 nM and 2100.
For `CN1CCc2cc(Cl)c(O)cc2C1C1(c2ccccc2Br)CCC1` (centres unmarked) [Example 40, 1-[1-(2-bromophenyl)cyclobutyl]-6-chloro-7-hydroxy-2-methyl-1,2,3,4-tetrahydroisoquinoline], in that order: 18000 nM, 0.4 nM and 45000.
On the same counts, the results for `CN1CCc2cc(O)c(O)cc2C1C1(c2ccc(Cl)cc2)CCCC1` (centres unmarked) [Example 14, 1-[1-(4-chlorophenyl)cyclopentyl]-6,7-dihydroxy-2-methyl-1,2,3,4-tetrahydroisoquinoline] are 4800 nM, 120 nM and 40.
For the compound `C=CCN1CCc2cc(O)c(O)cc2C1C1(c2ccc(Cl)cc2)CCC1` (centres unmarked) [Example 67, 2-allyl-1-[1-(4-chlorophenyl)cyclobutyl]-6,7-dihydroxy-1,2,3,4-tetrahydroisoquinoline], the Ki in assay [1] (estimated from single concentration data by Langmuir adsorption isotherm equation, read-out: Ki for D2 binding (marked E)) was 7000 nM; in assay [2], 53 nM.
As for `COc1cc2c(cc1O)C(C1(c3ccccc3OC)CC1)N(C)CC2` (centres unmarked) [Example 73, 7-hydroxy-6-methoxy-1-[1-(2-methoxyphenyl)cyclopropyl]-2-methyl-1,2,3,4-tetrahydroisoquinoline], the Ki was 5000 nM in assay [1] (setting [3]) and 0.9 nM in assay [2]. The “Ki for D2 / Ki for D1” value in assay [1] turned out to be 5500.
On the same counts, the results for `CN1CCc2cc(Cl)c(O)cc2C1C1(c2ccccc2)CCC1` (centres unmarked) [Example 52, 6-chloro-7-hydroxy-2-methyl-1-(1-phenylcyclobutyl)-1,2,3,4-tetrahydroisoquinoline] are 5400 nM, 17 nM and 320.
On the same counts, the results for `CN1CCc2cc(O)c(O)cc2C1C1(c2cccc(C(F)(F)F)c2)CCC1` (centres unmarked) [Example 8, 6,7-dihydroxy-2-methyl-1-[1-(3-trifluoromethylphenyl)cyclobutyl]-1,2,3,4-tetrahydroisoquinoline] are more than 5000 nM, 310 nM and more than 16.
For `CN1CCc2cc([N+](=O)[O-])c(O)cc2C1C1(c2ccccc2)CCC1` (centres unmarked) [Example 57, 7-hydroxy-2-methyl-6-nitro-1-(1-phenylcyclobutyl)-1,2,3,4-tetrahydroisoquinoline], in that order: more than 5000 nM, 770 nM and more than 6.5.
On to `CN1CCc2cc(O)c(O)cc2C1C1(c2ccccc2)CCC1` (centres unmarked) [Example 45, 6,7-dihydroxy-2-methyl-1-(1-phenylcyclobutyl)-1,2,3,4-tetrahydroisoquinoline], for which the Ki in assay [1] (setting [3]) is more than 500 nM; in assay [2], 24 nM. The “Ki for D2 / Ki for D1” value in assay [1] is on record as more than 21.
On the same counts, the results for `CN1CCc2cc(F)c(O)cc2C1C1(c2ccc(Cl)cc2Cl)CCC1` (centres unmarked) [Example 9, 1-[1-(2,4-dichlorophenyl)cyclobutyl]-6-fluoro-7-hydroxy-2-methyl-1,2,3,4-tetrahydroisoquinoline] are 1800 nM, 1.9 nM and 950.
For `COc1cc2c(cc1O)C(C1(c3ccccc3)CCCCC1)N(C)CC2` (centres unmarked) [Example 36, 7-hydroxy-6-methoxy-2-methyl-1-(1-phenylcyclohexyl)-1,2,3,4-tetrahydroisoquinoline], in that order: 4400 nM, 62 nM and 71.
For `COc1ccc(C2(C3c4cc(O)c(O)cc4CCN3C)CCC2)cc1` (centres unmarked) [Example 54], the values for the Ki in assay [1] (setting [3]) and in assay [2] were 3000 nM and 32 nM, respectively. Also, in assay [1], the “Ki for D2 / Ki for D1” value is given as 94.
For `CN1CCc2cc(O)c(O)cc2C1C1(c2ccccc2Br)CCC1` (centres unmarked) [Example 1, 1-[1-(2-bromophenyl)cyclobutyl]-6,7-dihydroxy-2-methyl-1,2,3,4-tetrahydroisoquinoline], in that order: 1000 nM, 4 nM and 250.
For `COc1cc2c(cc1O)C(C1(c3ccccc3OC)CCC1)N(C)CC2` (centres unmarked) [Example 38, 7-hydroxy-6-methoxy-1-[1-(2-methoxyphenyl)cyclobutyl]-2-methyl-1,2,3,4-tetrahydroisoquinoline], in that order: 3400 nM, 4.1 nM and 830.
On the same counts, the results for `COc1cc2c(cc1O)C(C1(c3ccccc3Cl)CC1)N(CCO)CC2` (centres unmarked) [Example 76, 1-[1-(2-chlorophenyl)cyclopropyl]-7-hydroxy-2-(2-hydroxyethyl)-6-methoxy-1,2,3,4-tetrahydroisoquinoline] are more than 5000 nM, 60 nM and more than 83.
On to `CN1CCc2cc(Br)c(O)cc2C1C1(c2ccccc2)CCC1` (centres unmarked) [Example 20, 6-bromo-7-hydroxy-2-methyl-1-(1-phenylcyclobutyl)-1,2,3,4-tetrahydrosoqunoline], for which the results for the Ki in assay [1] (setting [3]) and in assay [2] were more than 5000 nM and 31 nM, respectively. The “Ki for D2 / Ki for D1” value in assay [1] was more than 160.
For `COCCN1CCc2cc(OC)c(O)cc2C1C1(c2ccccc2Cl)CC1` (centres unmarked) [Example 75, 1-[1-(2-chlorophenyl)cyclopropyl]-7-hydroxy-6-methoxy-2-(2-methoxyethyl)-1,2,3,4-tetrahydroisoquinoline], in that order: more than 5000 nM, 150 nM and more than 33.
On the same counts, the results for `COc1cc2c(cc1O)C(C1(c3ccccc3Cl)CC1)N(C)CC2` (single isomer, unassigned; (+)) [Example 77, (+)-1-[1-(2-chlorophenyl)cyclopropyl]-7-hydroxy-6-methoxy-2-methyl-1,2,3,4-tetrahydroisoquinoline] are 900 nM, 0.28 nM and 3200.
